Laboratory results from patent US20220401460A1, “MODULATING RESISTANCE TO BCL-2 INHIBITORS” (Dana-Farber Cancer Institute, Inc., priority 2018, published 2022).
Each block holds one compound with its values, some of them ahead of it. Residues, ends and D or L forms follow the SMILES beside them. *: point of attachment. Cbz = O=C(OCc1ccccc1)*; CH2F = FC*

Key:
OCI-Ly1-S cells [1] = assay: Cell Titer-Glo viability assay and Chou-Talalay synergy analysis, parental OCI-Ly1-S cells; assay type: cell-based, human
OCI-Ly1-R cells = assay: Cell Titer-Glo viability assay, venetoclax-resistant OCI-Ly1-R cells; assay type: cell-based, human; settings: for restoration of venetoclax sensitivity: combination with venetoclax, OCI-Ly1-R cells
[2] = test system: ID3 knockout OCI-Ly1 cells; assay: Viability of single-cell clones from ID3 knockout OCI-Ly1 cells; assay type: cell-based, human; settings: single cell clones from ID3 knockout line, viability at 24 hours
Protocol: (§1) Cell viability assay. The Cell Titer-Glo Luminescent Cell Viability Assay (Promega) was used to determine the relative number of viable cells after drug treatment. 0.2×10^6 cells/mL were seeded in a 24 well-plate and treated with drugs for 24 or 48 hours. The viability assay was conducted using the manufacturer's protocol after treatment. Values were normalized to DMSO-treated cells. Plates were read on a SpectraMax M3 reader (Molecular Devices).
Single-cell cloning of the ID3 knockout. OCI-Ly1 cells was performed using […] dilution strategy. Cells from the bulk ID3 OCI-Ly1 were seeded at a concentration of 0.5 cells/well in a 96-well plate (5 plates per cell line). To investigate the presence of mutations, 6 clones per sgRNA were analyzed by PCR and Sanger sequencing using primers flanking the target sites for the sgRNAs (Forward primer: 5′-[…]-3′ (SEQ ID NO:1); Reverse:5′-[…]-3′ (SEQ ID NO:2)). The absence of ID3 protein were confirmed in clones harboring loss-of-function mutations by western blot (FIG. 8d). Three different knockout single-cell clones for each sgRNA were used for further functional studies.

OCI-Ly1-S cells [3] = assay: Seahorse oxygen consumption (OCR) and extracellular acidification rate (ECAR), OCI-Ly1-S; assay type: cell-based, human
Protocol: Measurement of oxygen consumption and extracellular acidification rate. For each condition, 1.25×10^5 cells were counted and plated on a Seahorse plate coated with Cell-Tak (Corning Life Sciences) in Seahorse XF DMEM media (Agilent). OCR and ECAR were recorded using a Seahorse XF96 Analyzer (Agilent) for 24 consecutive measurements. OCR is measured before and after the addition of inhibitors to assess mitochondrial function by deriving several parameters of mitochondrial respiration: (i) basal respiration, (ii) ATP-linked respiration and proton leak respiration (after 3 μM oligomycin [Sigma], a complex V inhibitor) and (iii) maximal respiration (after 1 μM carbonyl cyanide m-chlorophenyl hydrazine (CCCP) [Sigma], a protonophore).
To measure the effect of venetoclax on OCR/ECAR, cells were pre-treated for 1 h with […] of zVAD-FMK (Abcam) or left untreated and OCR/ECAR were recorded for 4 measurements before injection of venetoclax at a final concentration of 100 nM. DMSO injection was used as control.

CLL patients = CLL patients treated with venetoclax in clinical trials (response, progression); assay type: in vivo, human
From the text: Human samples. Genomic DNA was isolated (DNAeasy Blood and Tissue Kit, Qiagen) from specimens collected from CLL patients enrolled on clinical trials of venetoclax treatment (NCT01328626, NCT02141282), approved by and conducted in accordance with the principles of the Declaration of Helsinki and with the approval of the Institutional Review Boards (IRB) of the University of Texas/MD Anderson Cancer Center (MDACC; Patients 1, 3, 4) or of Dana-Farber Cancer Institute (DFCI; Patient 2, 5, 6). Blood and/or tissue tumor samples were collected at baseline, before initiation of venetoclax therapy, and at relapse or progression on venetoclax.

[4] = test system: knockout and overexpression OCI-Ly1 cell lines; assay: Viability/growth of single-gene knockout and overexpression OCI-Ly1 cell lines; assay type: cell-based, human; settings: individual knockout cell lines vs lines transduced with 2 non-targeting control sgRNAs; P<0.05
Protocol: as §1
Cloning of sgRNA vectors. […]
Generation of engineered cell lines. […] As confirmation that the engineered cell lines expressed the expected alterations, Applicants: (i) evaluated the expression of the targeted protein by western-blotting (FIG. 6d), and (ii) for the CRISPR-Cas9 engineered cell lines, performed targeted DNA sequencing for the CRISPR target sites before and after 2 weeks of exposure to venetoclax (100 nM), and assessed the proportion of frameshift indels (FIG. 6g). […] Following PCR, samples were purified with Agencourt AMPure XP beads (Beckman Coulter) and quantified on a Bioanalyzer (Agilent) with High Sensitivity DNA chips. Sample libraries were diluted to 4 nM, pooled, and ran on the Illumina MiSeq platform using single-end sequencing with the following parameters: read 1: 296nt, index 1: 6nt.

[5] = 6 CLL patients progressing on venetoclax

SMILES: Cc1c(-c2c(-c3ccc(F)o3)sc3ncnc(O[C@H](Cc4ccccc4OCc4ccnn4CC(F)(F)F)C(=O)O)c23)ccc(OCCN2CCN(C)CC2)c1Cl [S63845]
combination index (synergy with venetoclax) (OCI-Ly1-S cells [1]; combination with venetoclax, OCI-Ly1-S cells, Chou-Talalay method): < 1 | synergy with venetoclax (OCI-Ly1-R cells; OCI-Ly-R cells): synergized | restoration of venetoclax sensitivity (OCI-Ly1-R cells): restore venetoclax sensitivity

SMILES: CC[C@H]1/C=C/C=C/C[C@@H](C)[C@H](O)[C@@](C)(O)C(=O)[C@@H](C)[C@H](O)[C@@H](C)C(=O)[C@@H](C)[C@H](O)[C@@H](C)/C=C/C(=O)O[C@@H]2[C@H](C)[C@H](CC1)O[C@]1(CC[C@H](C)[C@H](C[C@@H](C)O)O1)[C@H]2C [oligomycin]
sensitivity to the combination with venetoclax vs control cells [2]: more sensitive | restoration of venetoclax sensitivity (OCI-Ly1-R cells): restore sensitivity to venetoclax

IC50 (OCI-Ly1-R cells; Homo sapiens, OCI-Ly1-R cells generated by chronic in vitro drug exposure): 1000 nM | median increase in IC50 [4]: 2.1 fold
SMILES: CC1(C)CCC(CN2CCN(c3ccc(C(=O)NS(=O)(=O)c4ccc(NCC5CCOCC5)c([N+](=O)[O-])c4)c(Oc4cnc5[nH]ccc5c4)c3)CC2)=C(c2ccc(Cl)cc2)C1 [venetoclax]
IC50 (OCI-Ly1-S cells [1]; Homo sapiens, parental OCI-Ly1-S cells): 4 nM | decrease in oxygen consumption (OCI-Ly1-S cells [3]; OCI-Ly1-S cells, within 20 minutes after drug exposure, venetoclax 100 nM): 2 fold | median time to relapse (CLL patients; [5]): 16.4 months | range of time to relapse (CLL patients; [5]): 5.1-22.8 months | Time to progression (months) (CLL patients; Patient 1, daily dose 400 mg): 22.8 months | Time to progression (months) (CLL patients; Patient 2, daily dose 400 mg): 7.1 months | Time to progression (months) (CLL patients; Patient 3, daily dose 400 mg): 16.4 months | Time to progression (months) (CLL patients; Patient 4, daily dose 400 mg): 5.1 months | Time to progression (months) (CLL patients; Patient 5, daily dose 400 mg): 8.2 months | Time to progression (months) (CLL patients; Patient 6, daily dose 1200 mg then 400 mg): 22.8 months

SMILES: COC(=O)C[C@H](NC(=O)[C@H](C)NC(=O)[C@@H](NC(=O)OCc1ccccc1)C(C)C)C(=O)CF [zVAD] (Cbz-Val-Ala-Asp(OMe)-CH2F)
prevention of venetoclax impact on OXPHOS (OCI-Ly1-S cells [3]; 1 h pre-treatment with zVAD-FMK before venetoclax): not fully prevented
